# According to patent US20240115587A1, “COMBINATION THERAPIES” (Kallyope, Inc., priority 2022, published 2024):
# Counter-ions that a name gives are not always drawn.
# Key:
# [1] = system: diet-induced-obese (DIO) mice; test: 14-day weight loss in DIO mice; assay type: in vivo; conditions: BID, 13 or 14 days
# Method: The effects of a GPR40 Agonist of Formula (B) alone and in combination with a GPR119 Agonist of Formula (A) on body weight were assessed in diet-induced-obese (DIO) mice over 14 days.
# Male C57BL/6J DIO mice, approximately 16 weeks old (Jackson Laboratories), were provided 60% high fat diet and water ad libitum. Animals were dosed BID (two times a day) with vehicle for an approximately 3-week until body weight had stabilized. At approximately 20 weeks of age, the mice were randomized into treatment groups (n=8/group) by body weight (range of 37 to 55 g) as well as food intake, and body weight change measured over a two-day baseline period. In order to maximize time on target throughout the day, compounds were administered BID, 8 h apart. Food intake and body weight were measured daily.
# male C57BL/6J mice [2] = test: Gut hormone (GLP-1) secretion in mice, plasma GLP-1 after oral gavage; assay type: in vivo; conditions: 30 mg/kg of each compound
# Method: To determine whether activating two receptors simultaneously results in increased effects on hormone release, representative GPR40 agonists of Formula (B) were tested in combination with a GPR119 agonist of Formula (A). GLP-1 was measured at 5 and 17 h post dose. For the dose titration study, male C57BL/6J mice were acclimated to the facility and the dosing procedure. Mice were weighed and then fasted for 4 h. The mice were administered vehicle, a GPR40 agonist of Formula (B) at 30 mg/kg, a GPR119 agonist of Formula (A) at 30 mg/kg, and the GPR40 agonist of Formula (B) at 0.3, 1, 3, 10, and 30 mg/kg doses in combination with the GPR119 agonist of Formula (A) at 30 mg/kg by oral gavage. Blood was collected at 5 h post-dose or 17 h post-dose, and plasma was assayed for GLP-1.
# human GPR40 = target: T1, human GPR40 (Homo sapiens, UniProt O14842); test: Inositol phosphate (IP1) accumulation assay, CHO-K1 cells expressing human GPR40; assay type: cell-based; conditions: CHO hFFAR1 cells, IP1 HTRF, 90 min
# T1 construct: host or cells: CHO-K1
# T1 sequence (O14842 whole entry): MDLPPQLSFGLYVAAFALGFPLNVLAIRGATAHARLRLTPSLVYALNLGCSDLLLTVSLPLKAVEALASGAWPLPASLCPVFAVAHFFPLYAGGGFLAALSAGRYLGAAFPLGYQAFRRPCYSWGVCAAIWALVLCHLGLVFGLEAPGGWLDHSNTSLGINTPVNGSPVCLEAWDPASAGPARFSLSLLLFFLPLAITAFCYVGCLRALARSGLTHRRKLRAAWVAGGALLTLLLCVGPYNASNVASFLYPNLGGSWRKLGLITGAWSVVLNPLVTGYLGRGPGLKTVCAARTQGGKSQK
# Method: CHO-K1 cells expressing human GPR40 were purchased from DiscoverX (95-1005C2). HEK293 cells expressing mouse FFAR1 were prepared using a mouse FFAR1 carrying plasmid purchased from OriGene Technologies (MR222997). The cells were transfected using Lipofectamine 2000 using manufacturer instructions and stable cell line was established from a single cell using geneticine selection. Assay ready frozen (ARF) cells were prepared and used throughout the study.
# The assay was performed in a 384-well plate format using IP1 assay kit from Cis-Bio. ARF cells expressing FFAR1 (mouse and human) were thawed, washed and then plated in the appropriate medium (F12 based medium for CHO hFFAR1 and DMEM based medium for HEK293 mFFAR1—both were supplemented with 10% FBS and penicillin/streptomycin). 20 μL of 3.5×10^5 cells/mL were plated on a Poly D-Lysine coated 384-well white plate. The cells were then incubated for 16 hr at 37° C./5% CO2. After 16 hr the medium was removed and 15 μL of stimulation buffer containing the test compounds was added to the cells. The plates were then incubated for 90 min at 37° C./5% CO2. […]
# […] was measured using ClarioSTAR plate reader, calculating the ratio between emissions at 665 nm and 620 nm (HTRF ratio). […] EC50 and Max activity values were determined using a standard 4-parameter fit.
# male C57BL/6J mice [3] = test: Glucose excursion during oral glucose tolerance test in mice; assay type: in vivo; conditions: for % Reduction in 2-h glucose AUC vs. vehicle: OGTT, AUC 0 to 120 min, B6, B1, A14 30 mg/kg, linagliptin 0.3 mg/kg, metformin 300 mg/kg, dosed 1 h before glucose
# Method: The effects of GPR40 agonists of Formula (B) and a GPR119 agonist of Formula (A) alone and in combination on glucose excursion during an oral glucose tolerance test were assessed in mice. The effects of the combination of a compound of Formula (A) and compounds of Formula (B) with linagliptin (a DPP-4 inhibitor) or metformin were also assessed. Male C57BL/6J mice, approximately 10 weeks old, were acclimated to the facility and the oral dosing procedure. Mice were randomized into balanced treatment groups using body weight. Baseline glucose was assessed immediately before compound administration. […] Blood was assessed for glucose levels 20 min, 40 min, 60 min, and 120 min post D-(+)-glucose administration. The AUCs for blood glucose measures were calculated for each treatment from 0 to 120 min. Statistical analysis was performed on AUCs using one-way ANOVA versus vehicle, with Tukey's post-test.
# [4] = system: primary human ileal crypt cultures; test: GLP-1 secretion in human ileal crypt cultures; assay type: cell-based; conditions: 30 μM
# Method: The potential for the combination of a compound of Formula (A) and a compound of Formula (B) to induce gut hormone secretion from EECs was assessed using primary human ileal crypt cultures and compared to the effect of the individual agents.
# human GPR119 (hGPR119) = target: T2, human GPR119 (hGPR119) (Homo sapiens, UniProt Q8TDV5); test: cAMP accumulation assay, CHO-K1 cells stably expressing human GPR119; assay type: cell-based; conditions: cAMP HTRF, 60 minutes
# T2 construct: expressed in transfected cells
# T2 sequence (Q8TDV5 1-335): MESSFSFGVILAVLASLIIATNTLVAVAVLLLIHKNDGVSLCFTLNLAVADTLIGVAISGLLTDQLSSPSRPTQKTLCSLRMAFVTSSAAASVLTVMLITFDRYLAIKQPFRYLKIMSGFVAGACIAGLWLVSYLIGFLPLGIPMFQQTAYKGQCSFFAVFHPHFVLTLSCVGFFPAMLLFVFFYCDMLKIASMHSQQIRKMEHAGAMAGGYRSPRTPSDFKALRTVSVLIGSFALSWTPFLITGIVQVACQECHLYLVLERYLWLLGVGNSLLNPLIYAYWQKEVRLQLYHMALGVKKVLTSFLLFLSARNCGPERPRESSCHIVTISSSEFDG
# Method: CHO-K1 cells stably expressing human GPR119 (hGPR119) were prepared by transfection of a GPR119-carrying plasmid using Lipofectamine 2000 (following manufacturer instructions). A stable cell line was established using the limiting dilution method with geneticine selection. Assay-ready frozen (ARF) cells were prepared and used throughout the study.
# The assay was performed in a 384-well plate format using the cAMP Gs dynamic assay kit from Cisbio. ARF cells expressing hGPR119 were thawed, washed and then resuspended in cAMP stimulation buffer at a cell density of 1.1×10^6 cells/mL. Cells were plated at a density of ˜10,000 cells/well (9 μL/well). Dose response curves for the tested compounds were prepared in a cAMP stimulation buffer, containing 0.1% Tween 80 at 4 fold the final concentration. The compounds were then transferred to the cell plates using BRAVO (3 μL/well) and the plates were incubated for 60 minutes at 37° C./5% CO2. Detection buffer (10 μL, prepared as described in the cAMP Gs dynamic kit) were added to each well, and the plates were incubated at ambient temperature for 1 hr.
# RT-FRET was measured using a ClarioSTAR plate reader, calculating the ratio between emissions at 665 nm and 620 nm (HTRF ratio). The HTRF ratio for positive (Max) and negative (Min) controls were used to normalize HTRF data and generate values for % activity. EC50 and Max activity values were determined using a standard 4-parameter fit.
SMILES,GLP-1 (fold increase) (male C57BL/6J mice [2]; 5 h post dose),GLP-1 (fold increase) (male C57BL/6J mice [2]; 17 h post dose),% Reduction in 2-h glucose AUC vs. vehicle (male C57BL/6J mice [3]) [%],GLP-1 (fold increase) [4] [fold increase],EC50 (human GPR119 (hGPR119)) [nM],further results
"COc1ccc(F)c([C@H]2CC[C@H](COc3cccc([C@H](C[P@](C)(=O)O)C4CC4)c3)CC2)c1 (single isomer, unassigned) [Compound B1]",1.9,1.4,14,5.5,,"% Weight Loss vs Vehicle ([1]; Study 1, DIO mice): 3.1%; EC50 (human GPR40): ≤ 50 nM"
"COc1ccc(F)c([C@H]2CC[C@H](COc3cccc([C@@H](C[P@@](C)(=O)O)C4CC4)c3)CC2)c1 (single isomer, unassigned) [Compound B2]",,,,,,EC50 (human GPR40): 50 to 250 nM
"CCCc1cnc(N2CCC(CCCOc3cc(F)c(CC(=O)N4CC(C(=O)NCCC[N+](C)(C)C)C4)c(F)c3)CC2)nc1 [Compound A13, 3-[[1-[2-[2,6-difluoro-4-[3-[1-(5-propylpyrimidin-2-yl)-4-piperidyl]propoxy]phenyl]acetyl]azetidine-3-carbonyl|amino]propyl-trimethyl-ammonium formate]",,,,,100 to 1000,
"O=C(Cc1ccc(OCCCC2CCN(c3ncc(Cl)cn3)CC2)cc1F)N1CC(CNC[C@H](O)[C@@H](O)[C@H](O)[C@H](O)CO)C1 [Compound A14, 2-[4-[3-[1-(5-chloropyrimidin-2-yl)-4-piperidyl]propoxy]-2-fluoro-phenyl]-1-[3-[[[(2S,3R,4R,5R)-2,3,4,5,6-pentahydroxyhexyl]amino]methyl]azetidin-1-yl]ethanone]",1.6,1.3,14,1.9,,"% Weight Loss vs Vehicle ([1]; Study 1, DIO mice): 2.5%"
"CCc1cnc(N2CCC(CCCOc3ccc(CC(=O)N4CC(CNC[C@H](O)[C@H](O)[C@@H](O)[C@H](O)C(=O)O)C4)c(F)c3)CC2)nc1 [Compound A36, (2S,3R,4S,5S)-6-[[1-[2-[4-[3-[1-(5-ethylpyrimidin-2-yl)-4-piperidyl]propoxy]-2-fluoro-phenyl]acetyl]azetidin-3-yl]methylamino]-2,3,4,5-tetrahydroxy-hexanoic acid]",,,,,≤ 100,
COCc1cnc(N2CCC(CCCOc3ccc(CC(=O)N4CC(CNCCNC(=O)NC(CO)(CO)CO)C4)c(F)c3)CC2)nc1 [Compound A51],,,,,100 to 1000,
"O=C(NCCCCS(=O)(=O)O)C1CN(C(=O)Cc2ccc(OCCCC3CCN(c4ncc(Cl)cn4)CC3)cc2F)C1 [Compound A65, 4-[[1-[2-[4-[3-[1-(5-chloropyrimidin-2-yl)-4-piperidyl]propoxy]-2-fluoro-phenyl]acetyl]azetidine-3-carbonyl]amino]butane-1-sulfonic acid]",,,,,100 to 1000,
"COc1ccc(CCCC(C)(C)C)c(N2CCC(COc3cccc([C@@H](CP(C)(=O)O)C4CC4)c3)CC2)c1 [Compound B6, ((S)-2-cyclopropyl-2-(3-((1-(2-(4,4-dimethylpentyl)-5-methoxyphenyl)piperidin-4-yl)methoxy)phenyl)ethyl)(methyl)phosphinic acid]",3.2,1.9,21,4.0,,"% Weight Loss vs Vehicle ([1]; Study 2, DIO mice): 5.2%"
"CC#CCn1c(N2CCC[C@@H](N)C2)nc2c1c(=O)n(Cc1nc(C)c3ccccc3n1)c(=O)n2C [linagliptin, reference compound]",,,17,,,
"CN(C)C(=N)N=C(N)N [metformin, reference compound]",,,26,,,post-prandial glucose excursion (male C57BL/6J mice [3]; OGTT in mice): suppressed post-prandial glucose excursion
